Measured values from PMC6321136, “Combined In Vitro Studies and in Silico Target Fishing for the Evaluation of the Biological Activities of Diphylleia cymosa and Podophyllum hexandrum” (Molecules, 2018).

Assays:
[1] = system: Cytotoxicity, Antagonist, androgen receptor (AR); design: method as in PubChem Bioassay AID 743033; settings: ref PubChem Bioassay AID 743033; cited from earlier work
[2] = system: Cytotoxicity, Agonist, RXR; design: method as in PubChem Bioassay AID 1159529; settings: ref PubChem Bioassay AID 1159529; cited from earlier work
[3] = system: Agonist, thyroid stimulating hormone receptor (TSHR); design: method as in PubChem Bioassay AID 1224895; settings: ref PubChem Bioassay AID 1224895; cited from earlier work
[4] = system: Anti-Inflammatory model; design: method as in PubChem Bioassay AID 1309; settings: ref PubChem Bioassay AID 1309; cited from earlier work
[5] = system: Anticancer, Lung Tumor; design: method as in PubChem Bioassay AID 270; settings: ref PubChem Bioassay AID 270; cited from earlier work
[6] = system: Bacillus cereus ATCC 11778; experiment: Antibacterial microdilution assay; type: cell-based; settings: ATCC11778, read-out: B. cereus Mean ± SD (percentage of inhibition of microbial growth)
Description: (§1) Antibacterial susceptibility was performed using the modified microdilution method for bacteria, against Gram-positive (Staphylococcus aureus ATCC 25923 and Bacillus cereus ATCC 11778) and Gram-negative recognized pathogens (Escherichia coli ATCC 11775, Enterohemorrhagic E. coli ATCC 43895-EHEC, Pseudomonas aeruginosa ATCC 10145 and Salmonella choleraesuis subs. choleraesuis sorotype Typhi BM/Panama-TY2).
(§2) The experiments were performed in 96 well microplates. The extracts and isolated substance solubilized in DMSO (Vetec^TM) at 50 mg/mL were diluted in Mueller Hinton Broth (MHB, Difco) at a concentration of 500 µg/mL. The bacterial isolates, criopreserved at −80 °C were grown in Tryptic Soy Agar (TSA, Acumedia®) plates, at 37 °C for 18–24 h. The inoculum was adjusted in saline solution in a spectrophotometer at 625 nm, to a concentration of 1–5 × 10^8 CFU/mL and then diluted in MHB to 1–5 × 10^5 CFU/mL.
(§3) Volumes of 100 μL of the inoculum were added to wells containing 100 μL of the extracts at […], in triplicate (one well intended for extract control), resulting in a final concentration of 250 μg/mL. Chloramphenicol at 50 μg/mL and 0.5% DMSO were used as positive and negative controls, respectively. Evaluation of microbial growth was carried out by adding the inoculum to a well containing only MHB. Sterility of the culture medium was also confirmed by incubation in the assay plate. Assays were performed in triplicate. The microplates were incubated at 37 °C for 24 h. As an indicator of microbial growth, 20 μL of 2,3,5-triphenyltetrazolium chloride (TTC, Sigma-Aldrich, St. Louis, MO, USA) at 5 mg/mLwere added to each well. The plates were incubated at 37 °C for 3 h and then the TTC was solubilized with 100 μL of sodium lauryl sulfate solution in isopropanol 7 μg/mL and measured in a microplate reader at 485 nm. The result was expressed as the percentage of inhibition compared with the microbial growth control, and was considered positive for antibacterial activity for those extracts with an inhibition higher than 50%.

[7] = system: Staphylococcus aureus ATCC 25923; experiment: Antibacterial microdilution assay; type: cell-based; settings: ATCC25923, read-out: S. aureus Mean ± SD (percentage of inhibition of microbial growth)
Description: as §1, §2, §3

[8] = system: Pseudomonas aeruginosa ATCC 10145; experiment: Antibacterial microdilution assay; type: cell-based
Description: as §1, §2, §3

[9] = system: Escherichia coli ATCC 11775; experiment: Antibacterial microdilution assay; type: cell-based; settings: ATCC11775, read-out: E. coli Mean ± SD (percentage of inhibition of microbial growth)
Description: as §1, §2, §3

[10] = system: Cytotoxicity, Agonist, peroxisome proliferator-activated receptor delta (PPARd); design: method as in PubChem Bioassay AID 743211; settings: ref PubChem Bioassay AID 743211; cited from earlier work
[11] = system: Cytotoxicity, Agonist, antioxidant response element (ARE); design: method as in PubChem Bioassay AID 743203; settings: ref PubChem Bioassay AID 743203; cited from earlier work
[12] = system: Anticancer, Yes1 kinase; design: method as in PubChem Bioassay AID 686947; settings: ref PubChem Bioassay AID 686947; cited from earlier work
[13] = DPPH radical scavenger activity
Description: The evaluation of the antioxidant activity using the 2,2-diphenyl-1-picrylhydrazyl radical (DPPH) was performed according to the method proposed by Mensor et al., with adaptations. The samples were dissolved in MeOH at concentrations ranging from 1.0 to 200 μg/mL. A portion of 250 μL of each sample was added to a 96-well microplate. MeOH and pyrogallol (50 µg/mL) were employed as negative and positive controls, respectively. Then, 100 μL of either MeOH (blank wells) or DPPH solution (120 μg/mL, reaction wells) was added to the microplate. The reading was performed on a microplate reader (EL808IU-Biotek model, Biotek, Winooski, VT, USA), at 5 min intervals for a total of 45 min, at 515 nm. The percentage of radical scavenging activity (%RSA) was calculated using the following equation: % RSA = ((AC − AS)/AC) × 100, where AC is the absorbance of control and AS is the absorbance of samples taken at 35 min. The results were expressed in EC50 (effective concentration for 50% capture of the radicals) determined by non-linear regression using GraphPad Prism, version 6.0.

[14] = system: ADMET, Cytochrome P450 3A4; design: method as in PubChem Bioassay AID 884; settings: ref PubChem Bioassay AID 884; cited from earlier work
[15] = system: THP-1 cells; settings: THP-1 cells at 10 µM; ref [69]; cited from earlier work

In the case of COc1cc([C@@H]2c3cc4c(cc3[C@H](O)[C@H]3COC(=O)[C@H]23)OCO4)cc(OC)c1OC [Podophyllotoxin, podophyllotoxin], the “Exper. Activity” value [1] is listed as “Inactive”, the “Exper. Activity” value [2] is listed as “Inactive” and the “Exper. Activity” value [3] is listed as “Inactive”. The “Exper. Activity” value [4] was “Active”, the “Exper. Activity” value [5] was “Inactive” and the inhibition at 250 µg/mL [6] was 0%. For the same compound, the inhibition at 250 µg/mL [7] was 53.3 ± 8.8%, the “P. aeruginosa Mean ± SD (percentage of inhibition of microbial growth)” value ([8]; 250 µg/mL) was “No antibacterial activity” and the inhibition at 250 µg/mL ([8]; Pseudomonas aeruginosa, ATCC10145, read-out: P. aeruginosa Mean ± SD (percentage of inhibition of microbial growth)) was 30.2 ± 9.39%. For the same compound, the inhibition at 250 µg/mL [9] was 51.6 ± 9.08%, the “Exper. Activity” value [10] was “Inactive” and the “Exper. Activity” value [11] was “Inactive”. For the same compound, the “Exper. Activity” value [12] was “Inactive”, the “Antioxidant Activity (IC50-µg/mL) DPPH Radical Sequestration” value [13] was >200 µg/mL and the “Exper. Activity” value [14] was “Active”. The cytotoxicity [15] was “no cytotoxicity was observed”.
